ChEMBL document CHEMBL1201862, “PubChem BioAssay data set” (2004)
Calls of active or inactive are those of the source.

Assays:
[1] = tested on: HEK293; assay: NOD1 signaling inhibitors, primary screen, cell-based, luminescence, uHTS (AID 1578); assay type: functional; conditions: Homo sapiens
[2] = tested on: HEK293; assay: cells; assay type: functional, cell-based; conditions: Homo sapiens
[3] = molecular target: T1, Microphthalmia-associated transcription factor (Homo sapiens, UniProt O75030); assay: TRPM1 promoter luciferase signal decrease, dose response, MITF inhibitor project, cell-based, SK-MEL-5, cherry-picked, set 3 (AID 493073); assay type: functional
T1 sequence (O75030 whole entry): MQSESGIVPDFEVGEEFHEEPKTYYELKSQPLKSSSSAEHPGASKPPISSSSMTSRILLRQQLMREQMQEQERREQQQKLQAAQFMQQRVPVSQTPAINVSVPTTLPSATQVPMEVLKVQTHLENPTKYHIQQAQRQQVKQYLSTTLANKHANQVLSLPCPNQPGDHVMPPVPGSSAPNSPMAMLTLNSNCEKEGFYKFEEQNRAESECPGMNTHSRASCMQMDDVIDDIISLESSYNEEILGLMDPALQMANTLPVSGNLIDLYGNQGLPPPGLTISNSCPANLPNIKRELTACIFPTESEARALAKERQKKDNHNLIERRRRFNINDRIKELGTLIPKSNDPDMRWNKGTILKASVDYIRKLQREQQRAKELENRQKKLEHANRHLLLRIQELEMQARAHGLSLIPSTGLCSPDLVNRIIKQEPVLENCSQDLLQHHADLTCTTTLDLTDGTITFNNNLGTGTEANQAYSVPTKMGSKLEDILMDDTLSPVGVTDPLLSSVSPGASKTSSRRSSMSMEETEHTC

[4] = tested on: HEK293; assay: cells; conditions: Homo sapiens
[5] = control 3'UTR Renilla luciferase suppression, dose response, counter-screen for Shn3 inhibitor project, cell-based, Clone20-Shn3RL, cherry-picked (AID 624133); assay type: functional
[6] = tested on: HEK293; assay: NOD2 signaling inhibitors in MDP-stimulated cells, cell-based, uHTS, luminescence (AID 2001); assay type: functional; conditions: Homo sapiens
[7] = molecular target: Nucleotide-binding oligomerization domain-containing protein 2 (Homo sapiens, UniProt Q9HC29); assay: NOD2 signaling inhibitors, cell-based, luminescence, uHTS, HEK293 (AID 1566); assay type: functional
[8] = tested on: HEK293; assay: cells; assay type: functional, cell-based; conditions: Homo sapiens; remark: listed apart in the source
[9] = molecular target: Nucleotide-binding oligomerization domain-containing protein 1 (Homo sapiens, UniProt Q9Y239); assay: NOD1 signaling inhibitors, SAR follow-up, revised (AID 2333); assay type: functional
[10] = HepG2 cell cytotoxicity, dose response, cytotoxicity control for Shn3 inhibitor project, CellTiter-Glo, cherry-picked (AID 624134); assay type: functional, cell-based
[11] = molecular target: Tumor necrosis factor (Homo sapiens, UniProt P01375); assay: TNFa-triggered NF-kB activation inhibitors, SAR follow-up, cell-based, revised (AID 2337); assay type: functional
[12] = tested on: HEK293; assay: cells; assay type: functional, cell-based; conditions: Homo sapiens; remark: listed apart in the source
[13] = Shn3 3'UTR reporter inhibitors, dose response, cell-based, Clone20 osteoblasts, firefly luciferase, cherry-picked (AID 624132); assay type: functional;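 further: firefly luciferase luminescence from reporter carrying the Shn3 3'UTR in osteoblasts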
[14] = molecular target: Large T antigen (Simian virus 40, UniProt P03070); assay type: functional, Betapolyomavirus macacae;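 further: Confirmatory-stage PubChem screen for compounds that inhibit SV40 T antigen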
[15] = cells; assay type: functional, cell-based
[16] = molecular target: Procathepsin L (Homo sapiens, UniProt P07711)
[17] = molecular target: T2, RNA-binding protein pos-1 (Caenorhabditis elegans, UniProt G5EF15); assay: inhibitors of POS-1/mex-3 RNA binding, dose response, biochemical, fluorescence polarization (AID 1964);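 further: purified POS-1 fused to maltose binding protein made in E. coli; potency of compounds blocking POS-1 binding to fluorescent RNA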
T2 sequence (G5EF15 whole entry): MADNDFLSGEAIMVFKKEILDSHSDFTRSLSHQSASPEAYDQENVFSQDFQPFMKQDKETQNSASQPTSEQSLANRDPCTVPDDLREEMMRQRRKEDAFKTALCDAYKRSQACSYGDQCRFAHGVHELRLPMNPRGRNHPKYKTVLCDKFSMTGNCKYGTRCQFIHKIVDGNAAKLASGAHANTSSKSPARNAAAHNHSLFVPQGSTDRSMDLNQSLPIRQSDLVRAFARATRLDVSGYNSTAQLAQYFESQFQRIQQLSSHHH

[18] = molecular target: T3, SUMO-activating enzyme (Homo sapiens, UniProt Q9UBT2); assay: inhibitors of in vitro SUMOylation cascade, primary screen, biochemical, HTRF, uHTS (AID 2006); assay type: protein-complex assay
[19] = molecular target: T3, SUMO-activating enzyme; assay: SUMOylation inhibitor hit validation, confirmation, SUMOylation inhibitor project, biochemical, AlphaScreen (AID 2018); assay type: functional
[20] = molecular target: Albumin (Bos taurus, UniProt P02769); assay: Counterscreen for inhibitors of T-cell receptor (TCR)-CD3 interaction: Fluorescence-based biochemical high throughput dose response assay to identify inhibitors of T-cell receptor (TCR)-CD3 interaction using a TAMRA-labeled BSA probe.; assay type: functional
[21] = molecular target: Aspartyl aminopeptidase (Plasmodium falciparum 3D7, UniProt Q8I2J3)
[22] = molecular target: Dual specificity tyrosine-phosphorylation-regulated kinase 1A (Rattus norvegicus, UniProt Q63470); assay type: biochemical, Homo sapiens
[23] = molecular target: T4, Trace amine-associated receptor 1 (Homo sapiens, UniProt Q96RJ0); assay: Fluorescence-based cell-based high throughput dose response assay to identify agonists of the human trace amine associated receptor 1 (TAAR1).; assay type: functional
T4 sequence (Q96RJ0 whole entry): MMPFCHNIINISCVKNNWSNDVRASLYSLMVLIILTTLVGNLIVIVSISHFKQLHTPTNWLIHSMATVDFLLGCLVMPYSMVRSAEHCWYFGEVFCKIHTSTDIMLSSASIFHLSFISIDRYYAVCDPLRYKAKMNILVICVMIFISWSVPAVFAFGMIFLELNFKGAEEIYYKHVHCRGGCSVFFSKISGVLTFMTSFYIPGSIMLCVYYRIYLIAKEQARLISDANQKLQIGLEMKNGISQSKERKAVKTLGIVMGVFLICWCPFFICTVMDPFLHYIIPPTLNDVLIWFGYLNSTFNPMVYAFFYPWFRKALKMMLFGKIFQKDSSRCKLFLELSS

[24] = cells; assay type: functional, cell-based; remark: listed apart in the source
[25] = molecular target: T4, Trace amine-associated receptor 1; assay: Counterscreen for agonists of the human trace amine associated receptor 1 (hTAAR1): Fluorescence-based cell-based high throughput dose response assay to identify hTAAR1 agonist that also desensitize TAAR1 receptor response.; assay type: functional
[26] = molecular target: Intestinal-type alkaline phosphatase (Mus musculus, UniProt P24822); assay: mouse intestinal alkaline phosphatase activators, dose response, biochemical, luminescence, uHTS hits (AID 488783); assay type: functional
[27] = molecular target: Intestinal-type alkaline phosphatase (Homo sapiens, UniProt P09923); assay: activation of human intestinal alkaline phosphatase – biochemical, dose response (AID 488873); assay type: functional
[28] = molecular target: T5, Zinc finger protein mex-5 (Caenorhabditis elegans, UniProt Q9XUB2); assay: MEX-5/TCR-2 RNA interaction inhibitors, dose response, biochemical, C. elegans, fluorescence polarization (AID 1960)
T5 sequence (Q9XUB2 whole entry): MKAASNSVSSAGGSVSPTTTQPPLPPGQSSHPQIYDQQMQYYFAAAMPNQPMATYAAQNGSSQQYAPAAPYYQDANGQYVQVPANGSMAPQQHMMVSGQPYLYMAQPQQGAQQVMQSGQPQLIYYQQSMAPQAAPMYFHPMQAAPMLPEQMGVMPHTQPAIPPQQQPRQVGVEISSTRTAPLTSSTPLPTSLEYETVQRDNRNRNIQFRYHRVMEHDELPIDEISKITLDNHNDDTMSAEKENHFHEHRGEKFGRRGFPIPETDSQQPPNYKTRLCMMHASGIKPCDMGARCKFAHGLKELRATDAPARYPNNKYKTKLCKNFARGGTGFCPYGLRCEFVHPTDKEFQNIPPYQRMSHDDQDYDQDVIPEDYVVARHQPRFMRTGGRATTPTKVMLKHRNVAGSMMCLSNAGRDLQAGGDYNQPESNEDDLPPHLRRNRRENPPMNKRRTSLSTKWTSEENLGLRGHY

[29] = molecular target: T6, Alkaline phosphatase, tissue-nonspecific isozyme (Homo sapiens, UniProt P05186); assay: TNAP enzyme activators, dose response, selectivity assay for mouse IAP activator project, biochemical, TNAP isozyme, mouse IAP uHTS hits (AID 488880); assay type: functional
T6 sequence (P05186 whole entry): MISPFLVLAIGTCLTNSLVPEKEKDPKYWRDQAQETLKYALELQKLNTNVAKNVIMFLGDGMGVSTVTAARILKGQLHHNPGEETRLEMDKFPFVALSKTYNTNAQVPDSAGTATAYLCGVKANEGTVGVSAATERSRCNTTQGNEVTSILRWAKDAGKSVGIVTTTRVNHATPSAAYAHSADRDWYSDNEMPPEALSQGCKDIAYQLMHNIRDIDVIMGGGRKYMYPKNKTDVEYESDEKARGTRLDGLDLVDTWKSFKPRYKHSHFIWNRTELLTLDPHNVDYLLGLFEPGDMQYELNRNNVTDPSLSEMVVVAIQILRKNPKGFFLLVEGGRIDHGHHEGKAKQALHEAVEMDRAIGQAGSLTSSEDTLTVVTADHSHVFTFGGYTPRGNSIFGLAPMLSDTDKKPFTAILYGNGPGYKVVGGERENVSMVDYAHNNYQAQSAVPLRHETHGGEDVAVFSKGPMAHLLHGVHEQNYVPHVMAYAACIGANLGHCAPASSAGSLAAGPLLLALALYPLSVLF

T3 sequence (Q9UBE0 whole entry): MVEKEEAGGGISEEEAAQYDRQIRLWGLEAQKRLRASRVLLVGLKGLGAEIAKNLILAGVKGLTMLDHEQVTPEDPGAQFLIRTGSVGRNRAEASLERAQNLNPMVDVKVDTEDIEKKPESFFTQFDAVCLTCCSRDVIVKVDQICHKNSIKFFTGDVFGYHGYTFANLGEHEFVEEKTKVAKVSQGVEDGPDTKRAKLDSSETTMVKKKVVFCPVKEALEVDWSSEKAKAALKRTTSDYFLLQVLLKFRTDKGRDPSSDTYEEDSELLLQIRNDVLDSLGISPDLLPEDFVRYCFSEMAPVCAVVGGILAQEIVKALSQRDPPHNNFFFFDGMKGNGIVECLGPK
T3 sequence (Q9UBT2 whole entry): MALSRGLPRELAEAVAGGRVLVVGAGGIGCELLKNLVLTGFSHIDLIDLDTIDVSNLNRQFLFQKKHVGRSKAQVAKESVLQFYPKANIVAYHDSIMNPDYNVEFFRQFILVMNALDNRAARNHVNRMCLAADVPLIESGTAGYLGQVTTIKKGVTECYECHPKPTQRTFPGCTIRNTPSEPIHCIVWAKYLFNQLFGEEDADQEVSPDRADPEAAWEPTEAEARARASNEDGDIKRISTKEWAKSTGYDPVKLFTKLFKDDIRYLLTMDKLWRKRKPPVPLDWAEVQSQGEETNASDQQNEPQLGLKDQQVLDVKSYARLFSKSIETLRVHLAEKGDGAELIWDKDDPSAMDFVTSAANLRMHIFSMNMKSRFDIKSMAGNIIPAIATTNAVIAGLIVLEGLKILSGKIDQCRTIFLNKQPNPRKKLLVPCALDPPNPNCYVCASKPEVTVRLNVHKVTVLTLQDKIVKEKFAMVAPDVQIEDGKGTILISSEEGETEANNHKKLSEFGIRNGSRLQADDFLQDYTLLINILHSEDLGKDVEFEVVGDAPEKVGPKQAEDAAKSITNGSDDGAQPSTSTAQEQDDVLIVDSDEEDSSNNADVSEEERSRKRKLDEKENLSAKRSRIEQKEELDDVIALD
Sequence of Intestinal-type alkaline phosphatase (Mus musculus, UniProt P24822) (P24822 whole entry): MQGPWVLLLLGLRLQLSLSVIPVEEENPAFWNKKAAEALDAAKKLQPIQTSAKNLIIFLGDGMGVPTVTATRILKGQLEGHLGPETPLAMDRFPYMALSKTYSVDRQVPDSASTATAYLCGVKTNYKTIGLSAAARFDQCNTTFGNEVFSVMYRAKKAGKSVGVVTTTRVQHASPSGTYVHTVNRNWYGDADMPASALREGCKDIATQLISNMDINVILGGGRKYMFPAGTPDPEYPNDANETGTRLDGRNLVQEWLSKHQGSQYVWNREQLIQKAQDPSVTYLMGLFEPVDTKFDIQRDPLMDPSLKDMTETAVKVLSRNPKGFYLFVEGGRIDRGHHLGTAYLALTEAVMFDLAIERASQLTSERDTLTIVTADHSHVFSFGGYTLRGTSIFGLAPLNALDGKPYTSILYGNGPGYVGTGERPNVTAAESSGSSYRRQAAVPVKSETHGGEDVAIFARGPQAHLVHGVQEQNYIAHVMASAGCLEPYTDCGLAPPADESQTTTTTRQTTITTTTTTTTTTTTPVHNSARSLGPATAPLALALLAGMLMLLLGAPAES
Sequence of Tumor necrosis factor (P01375 whole entry): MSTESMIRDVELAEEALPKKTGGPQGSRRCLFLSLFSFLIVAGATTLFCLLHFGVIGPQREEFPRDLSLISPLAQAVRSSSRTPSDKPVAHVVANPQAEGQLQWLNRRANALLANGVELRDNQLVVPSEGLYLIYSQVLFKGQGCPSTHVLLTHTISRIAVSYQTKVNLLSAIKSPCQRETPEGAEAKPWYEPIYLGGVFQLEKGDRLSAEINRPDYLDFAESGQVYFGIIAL
Sequence of Large T antigen (P03070 whole entry): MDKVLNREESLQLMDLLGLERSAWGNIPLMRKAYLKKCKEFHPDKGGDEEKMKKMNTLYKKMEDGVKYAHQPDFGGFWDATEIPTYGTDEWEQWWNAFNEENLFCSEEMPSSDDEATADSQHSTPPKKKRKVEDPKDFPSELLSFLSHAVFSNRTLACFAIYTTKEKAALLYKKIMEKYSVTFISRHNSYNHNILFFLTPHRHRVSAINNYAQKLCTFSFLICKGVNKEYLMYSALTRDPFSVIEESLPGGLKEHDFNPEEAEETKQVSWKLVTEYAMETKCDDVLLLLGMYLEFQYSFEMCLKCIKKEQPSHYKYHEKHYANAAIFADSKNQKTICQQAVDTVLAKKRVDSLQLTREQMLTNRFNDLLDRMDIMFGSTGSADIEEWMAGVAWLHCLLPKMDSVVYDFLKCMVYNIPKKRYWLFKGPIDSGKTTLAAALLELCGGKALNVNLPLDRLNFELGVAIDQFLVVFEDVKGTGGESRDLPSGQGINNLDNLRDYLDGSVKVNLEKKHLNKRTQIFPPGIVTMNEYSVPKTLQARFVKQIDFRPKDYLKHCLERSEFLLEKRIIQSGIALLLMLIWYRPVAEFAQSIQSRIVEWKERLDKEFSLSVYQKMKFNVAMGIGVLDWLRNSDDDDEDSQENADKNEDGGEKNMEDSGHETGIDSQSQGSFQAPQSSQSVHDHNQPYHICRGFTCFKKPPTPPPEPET
Sequence of Intestinal-type alkaline phosphatase (Homo sapiens, UniProt P09923) (P09923 whole entry): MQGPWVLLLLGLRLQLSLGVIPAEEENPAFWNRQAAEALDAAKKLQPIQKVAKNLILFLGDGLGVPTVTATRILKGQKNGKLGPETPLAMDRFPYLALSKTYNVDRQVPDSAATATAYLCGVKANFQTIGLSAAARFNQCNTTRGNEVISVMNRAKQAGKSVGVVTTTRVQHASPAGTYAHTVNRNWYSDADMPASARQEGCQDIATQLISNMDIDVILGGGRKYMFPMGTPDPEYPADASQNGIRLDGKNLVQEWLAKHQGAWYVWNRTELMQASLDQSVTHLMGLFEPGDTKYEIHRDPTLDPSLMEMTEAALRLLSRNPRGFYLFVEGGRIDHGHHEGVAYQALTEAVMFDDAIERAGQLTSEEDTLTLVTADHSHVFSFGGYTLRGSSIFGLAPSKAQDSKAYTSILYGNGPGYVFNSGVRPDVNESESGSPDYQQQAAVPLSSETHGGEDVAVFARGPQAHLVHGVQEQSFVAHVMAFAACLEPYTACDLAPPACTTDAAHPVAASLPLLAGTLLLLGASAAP
Sequence of Aspartyl aminopeptidase (Q8I2J3 whole entry): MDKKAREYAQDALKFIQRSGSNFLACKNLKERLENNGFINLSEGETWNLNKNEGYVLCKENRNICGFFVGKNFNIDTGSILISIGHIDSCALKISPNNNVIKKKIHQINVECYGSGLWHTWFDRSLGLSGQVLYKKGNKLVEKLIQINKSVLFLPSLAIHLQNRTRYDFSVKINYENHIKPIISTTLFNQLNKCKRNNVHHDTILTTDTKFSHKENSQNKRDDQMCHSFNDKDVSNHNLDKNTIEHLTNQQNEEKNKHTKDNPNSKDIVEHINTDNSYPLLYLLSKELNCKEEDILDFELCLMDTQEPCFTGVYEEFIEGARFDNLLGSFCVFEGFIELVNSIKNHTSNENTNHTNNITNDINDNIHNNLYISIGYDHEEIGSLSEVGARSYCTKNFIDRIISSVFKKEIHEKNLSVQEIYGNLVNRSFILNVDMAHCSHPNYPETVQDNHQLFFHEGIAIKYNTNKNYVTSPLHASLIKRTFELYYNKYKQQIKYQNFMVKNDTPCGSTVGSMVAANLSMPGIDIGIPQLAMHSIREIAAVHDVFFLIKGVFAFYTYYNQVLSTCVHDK
Sequence of Nucleotide-binding oligomerization domain-containing protein 2 (Q9HC29 whole entry, the tested form may be a part): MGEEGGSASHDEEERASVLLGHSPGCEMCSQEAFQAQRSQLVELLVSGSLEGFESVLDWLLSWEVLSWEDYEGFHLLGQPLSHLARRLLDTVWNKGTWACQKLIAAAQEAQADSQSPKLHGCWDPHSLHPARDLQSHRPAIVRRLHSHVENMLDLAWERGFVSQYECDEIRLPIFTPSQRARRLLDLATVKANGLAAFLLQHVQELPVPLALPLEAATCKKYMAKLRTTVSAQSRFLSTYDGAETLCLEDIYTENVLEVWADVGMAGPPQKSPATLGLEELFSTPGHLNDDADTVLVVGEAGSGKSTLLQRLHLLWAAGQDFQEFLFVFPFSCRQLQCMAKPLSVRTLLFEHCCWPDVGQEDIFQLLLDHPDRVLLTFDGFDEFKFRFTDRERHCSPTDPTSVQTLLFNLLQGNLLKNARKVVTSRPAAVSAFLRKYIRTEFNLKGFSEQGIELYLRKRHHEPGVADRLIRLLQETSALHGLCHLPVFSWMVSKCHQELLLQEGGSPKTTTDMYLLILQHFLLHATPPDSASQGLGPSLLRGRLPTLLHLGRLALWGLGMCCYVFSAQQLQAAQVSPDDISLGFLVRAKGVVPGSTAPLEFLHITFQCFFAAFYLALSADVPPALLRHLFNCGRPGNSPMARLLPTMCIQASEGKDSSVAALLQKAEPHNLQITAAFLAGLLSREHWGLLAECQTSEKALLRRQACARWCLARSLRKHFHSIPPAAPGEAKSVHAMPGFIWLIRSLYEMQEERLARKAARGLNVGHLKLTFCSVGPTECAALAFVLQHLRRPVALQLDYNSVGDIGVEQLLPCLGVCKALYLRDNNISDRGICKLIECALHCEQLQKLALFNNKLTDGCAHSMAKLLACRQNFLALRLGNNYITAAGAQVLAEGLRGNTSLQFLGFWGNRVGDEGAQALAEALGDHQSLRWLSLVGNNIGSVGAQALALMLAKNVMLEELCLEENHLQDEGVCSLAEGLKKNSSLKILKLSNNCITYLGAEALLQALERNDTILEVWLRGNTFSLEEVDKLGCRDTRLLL
Sequence of Procathepsin L (P07711 whole entry, the tested form may be a part): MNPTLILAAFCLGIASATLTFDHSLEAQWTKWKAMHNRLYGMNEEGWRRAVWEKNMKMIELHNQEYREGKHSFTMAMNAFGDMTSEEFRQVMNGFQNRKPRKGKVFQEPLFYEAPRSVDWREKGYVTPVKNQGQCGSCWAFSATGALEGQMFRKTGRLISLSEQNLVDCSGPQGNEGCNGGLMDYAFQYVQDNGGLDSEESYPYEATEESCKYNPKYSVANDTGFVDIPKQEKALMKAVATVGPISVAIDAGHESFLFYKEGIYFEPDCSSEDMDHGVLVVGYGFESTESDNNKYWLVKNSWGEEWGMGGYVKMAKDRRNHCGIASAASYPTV

## CCOC(=O)N1CCN(C(=O)c2ccc(Cn3c(=S)[nH]c4ccc(Br)cc4c3=O)cc2)CC1
[1]
  EC50: 4.23 µM (active)
[2]
  IC50: 9.03 µM (active)
[3]
  AC50: 3.52 µM (active)
[4]
  IC50: 18.7 µM (active)
[5]
  AC50: 0.793 µM (active)
[6]
  IC50: 6.26 µM (active)
[7]
  EC50: 4.18 µM (active)
[8]
  IC50: > 20 µM (inactive)
[9]
  IC50: 4.77 µM (active)
[10]
  AC50: > 70 µM (inactive)
[11]
  IC50: 4.69 µM (active)
[12]
  IC50: > 20 µM (inactive)
[13]
  AC50: 1.25 µM (active)

## O=C(N/N=C/c1ccc(O)c(O)c1)N/N=C/c1ccc(O)c(O)c1
[14]
  IC50: 0.73 µM (active)
[15]
  IC50: > 29.9 µM (inactive)
[16]
  IC50: > 59.6 µM (not active)
[17]
  EC50: 16.2 µM (active)
[18]
  IC50: 2.11 µM (active)
[19]
  IC50: 0.69 µM (active)
[20]
  IC50: > 94.1 µM (inactive)
[21]
  IC50: 2.79 µM (active)
[22]
  AC50: 1.63 µM (active)
[23]
  EC50: 0.647 µM (active)
[24]
  EC50: > 29.9 µM (inactive)
[25]
  IC50: > 9.97 µM (active)
[26]
  EC50: 4.96 µM (active)
[27]
  EC50: 66.2 µM (active)
[28]
  EC50: 4.86 µM (inconclusive)
[29]
  EC50: 79.4 µM (active)
